Laboratory results as given in ChEMBL document CHEMBL1671703, “Bile acids improve the antimicrobial effect of rifaximin” (2010).
Active and inactive are the calls of the source. No cut-off for these calls is given here.

Experiments:
Escherichia coli [1] = assay: Inhibition of RNA synthesis in Escherichia coli H10407 assessed as inhibition of beta-galactosidase expression relative to control; format: functional; settings: ETEC H10407
Escherichia coli [2] = assay: Inhibition of RNA synthesis in Escherichia coli H10407 assessed as inhibition of beta-galactosidase expression at 32 ug/ml in presence of 4 mM bile acid; format: functional, ETEC H10407
Escherichia coli [3] = assay: Antimicrobial activity against Escherichia coli H10407 assessed as decrease in cell density at 16 ug/ml after 4 hrs in presence of 4 mM taurocholic acid; format: functional, ETEC H10407
Escherichia coli [4] = assay: Bacteriostatic activity against Escherichia coli H10407 at 16 ug/ml in presence of bile acid relative to absence of bile acid; format: functional, ETEC H10407
Escherichia coli [5] = assay: Antimicrobial activity against Escherichia coli H10407 assessed as decrease in cell density at 16 ug/ml after 4 hrs; format: functional; settings: ETEC H10407
Escherichia coli [6] = assay: Antimicrobial activity against Escherichia coli H10407 assessed as decrease in cell density at 16 ug/ml after 4 hrs in presence of 4 mM human bile acid; format: functional, ETEC H10407
Escherichia coli [7] = assay: Antimicrobial activity against Escherichia coli H10407 assessed as decrease in cell density at 16 ug/ml after 4 hrs in presence of 4 mM chenodeoxycholic acid; format: functional, ETEC H10407
Escherichia coli [8] = assay: Antimicrobial activity against Escherichia coli H10407 assessed as decrease in cell density at 16 ug/ml after 4 hrs in presence of 4 mM lithocholic acid; format: functional, ETEC H10407
Escherichia coli [9] = assay: Antimicrobial activity against Escherichia coli H10407 assessed as decrease in cell density at 16 ug/ml after 4 hrs in presence of 4 mM pooled synthetic bile acid; format: functional, ETEC H10407
Escherichia coli [10] = assay: Antimicrobial activity against Escherichia coli H10407 assessed as decrease in cell density at 16 ug/ml after 4 hrs in presence of 4 mM glycocholic acid; format: functional, ETEC H10407
Escherichia coli [11] = assay: Antimicrobial activity against Escherichia coli H10407 assessed as growth inhibition at 16 ug/ml; format: functional; settings: ETEC H10407
Escherichia coli [12] = assay: Antimicrobial activity against Escherichia coli H10407 assessed as decrease in cell density at 16 ug/ml after 4 hrs in presence of 4 mM cholic acid; format: functional, ETEC H10407
Escherichia coli [13] = assay: Antimicrobial activity against Escherichia coli H10407 assessed as decrease in cell density at 16 ug/ml after 4 hrs in presence of 4 mM deoxycholic acid; format: functional, ETEC H10407
Escherichia coli [14] = assay: Inhibition of RNA synthesis in Escherichia coli H10407 assessed as inhibition of beta-galactosidase expression at 16 ug/ml in presence of […] bile acid; format: functional, ETEC H10407
Escherichia coli [15] = assay: Decrease in protein expression in Escherichia coli H10407 at 16 ug/ml after 4 hrs; format: functional, ETEC H10407; design: scale not given: the % may be the effect or the level left
Escherichia coli [16] = assay: Inhibition of RNA synthesis in Escherichia coli H10407 assessed as inhibition of beta-galactosidase expression at 8 ug/ml in presence of 4 mM bile acid; format: functional, ETEC H10407
Escherichia coli [17] = assay: Bacteriostatic activity against Escherichia coli H10407 at 8 ug/ml in presence of bile acid relative to absence of bile acid; format: functional, ETEC H10407

CO[C@H]1/C=C/O[C@@]2(C)Oc3c(C)c(O)c4c(O)c(c5c(nc6cc(C)ccn65)c4c3C2=O)NC(=O)/C(C)=C\C=C\[C@H](C)[C@H](O)[C@@H](C)[C@@H](O)[C@@H](C)[C@H](OC(C)=O)[C@@H]1C [RIFAXIMIN]
inhibition (Escherichia coli [1]): Active
inhibition (INH) (Escherichia coli [2]): 82%
inhibition (INH) (Escherichia coli [3]): 77.6%
fold change (FC) (Escherichia coli [4]): 5.5
Activity (Escherichia coli [5]): Active
inhibition (INH) (Escherichia coli [6]): 72.8%
inhibition (INH) (Escherichia coli [7]): 89.2%
inhibition (INH) (Escherichia coli [8]): 43.9%
inhibition (INH) (Escherichia coli [9]): 70.6%
inhibition (INH) (Escherichia coli [10]): 80.8%
inhibition (Escherichia coli [11]): Active
inhibition (INH) (Escherichia coli [12]): 95.5%
inhibition (INH) (Escherichia coli [13]): 93.8%
inhibition (INH) (Escherichia coli [14]): 49%
Activity (Escherichia coli [15]): 59%
inhibition (INH) (Escherichia coli [16]): 33%
fold change (FC) (Escherichia coli [17]): 2
